{"source": "patent US10098895B2", "about": "“Treatment of symptoms related to neurodegenerative disorders through pharmacological dermal activation of cranial nerves” (GLIA, LLC, priority 2016, dated 2018)", "key": {"[1]": {"system": "ocular discomfort, tear film production, tremor", "assay": "Summary of human examples: onset, duration of efficacy and tolerance", "format": "in vivo", "conditions": "progesterone USP 0.5 to 1 mg per dose, aqueous formulation, to the forehead; all human examples", "description": "Additional findings are that very small doses in contrast to what is required in systemic delivery are required once or twice daily, but the pharmacological agents must be applied in such a manner, and from specified formulations, so that they penetrate to the epidermis. It is unnecessary to go deeper than the epidermis, or to be absorbed into the blood circulation. Thus there are no blood brain barrier issues. […] The activation appears to be remote and not proximate innervation by the agents themselves. A further finding is that there has been no buildup of tolerance after months and years of use.\nAll human examples of neurodegenerative disorder, Parkinson's, essential tremor, herpes ophthalmicus and chronic ocular graft-versus-host disease, had ocular discomfort and signs and symptoms that were treated by low dose progesterone USP, 0.5 to 1 mg per dose, applied in an aqueous formulation to the forehead. […] The afferent nerve accessed is CN V trigeminal nerve but the efferent parasympathetic signaling was via CN VII facial nerve and a branch the greater petrosal nerve that synapses in the pterygopalatine ganglion to innervate tear film secretion. […]\nAnother surprising observation is that the duration of efficacy is at least 12 hours with the easily monitored parameters such as ocular comfort, tear film production, or tremor reduction."}, "[2]": {"system": "c-Fos-positive neurons of the spinal trigeminal nucleus", "assay": "Example 10: effect of topical progesterone on neural c-Fos expression in rat brainstem", "format": "in vivo", "conditions": "progesterone 1% on the forehead, less than 0.2 mg per dose, two hours later", "procedure": "A study was conducted in a rat model using the same formulation of progesterone and the same route of administration as had been used by the individuals in the preceding examples. In the study, 7 rats were treated with progesterone 1% on the forehead, estimated to be less than 0.2 mg per dose, and 6 rats received placebo. Two hours later the animals were perfused and brainstems removed. Brainstem tissues were processed for immunohistochemistry using an anti-c-Fos antibody to identify c-Fos protein in cell nuclei that can be counted to assess the activity of c-Fos-positive neurons. Two regions of the spinal trigeminal nucleus were examined: (i) rostral spinal trigeminal nucleus (Vsp) subnucleus interpolaris/subnucleus caudalis (Vi/Vc) region and (ii) caudal Vsp subnucleus caudalis/cervical 1 (Vc/C1) region. […] The rat model confirmed forehead application of progesterone signaled the neurons responsible for activation of tear film production. Various authors and experiments had confirmed the role of neurons in the rostral subnucleus interpolaris (Vi/Vc) and caudalis (Vc/C1) region of brain stem within the spinal trigeminal nucleus (Vsp), a major termination zone for trigeminal sensory fibers, to innervate the eye. When cFos genes in these neurons are activated, cFos proteins are produced that can be stained to count the number of activated neurons. (Meng et al., 1996; Meng et al., 2013)."}, "[3]": {"system": "Parkinson's disease symptoms", "assay": "Example 1: Parkinson's disease patient, dermal application to forehead and ear conchae", "procedure": "A person was diagnosed with the early stages of Parkinson's disease in December of 2014. Their symptoms included tremors in the hands, impaired short term memory, slow and uncontrolled rigid movements while walking and eating, and declining ocular blink function. The patient also had dry eyes with hyper-tearing, burning, and itching.\nThe patient was also treated with progesterone 1% on the forehead initially once daily beginning in March 2015. […] The progesterone was applied as needed for about a year.\nInstead of the prescribed regimen, the patient began dermal application of dronabinol 1.25 mg 2 times daily to three sites: (i) the forehead, (ii) the concha of the left ear, and (iii) the concha of the right ear. Each dose of 1.25 mg was divided equally between the three application sites. This treatment regimen began Friday Jun. 10, 2016 concurrent with the discontinuation of rasagiline.\nIn February 2017, the patient, who suffers from debilitating moderate spinal stenosis, started taking Azilect (rasagiline) and carbidopa-levodopa to improve their walking and flexibility. […] The patient decided that, together with the prescribed medications, they would switch from dronabinol to topical testosterone gel applied to the forehead and ear conchae to see if this would impact their longstanding low testosterone levels.\nIn March 2017, topical testosterone gel application was instituted as an adjunct to is the prescribed Azilect and carbidopa-levodopa.\nThe patient voluntarily stopped topical testosterone for 3 weeks in June 2017. […] At the end of 3 weeks, topical testosterone was re-instituted as an adjunct to the prescribed medications."}, "[4]": {"system": "chronic ocular GVHD", "assay": "Example 5: second case of chronic ocular GVHD, tear film breakup time by Keratograph 5", "format": "in vivo, human", "procedure": "A patient with chronic ocular GVHD complained of eye discomfort, burning, and sticking lids. […] Their first-measured tear film breakup time was 7.4 seconds, with an average breakup time of 11.39 seconds. The patient was treated with a single dose of progesterone 1% to their forehead, followed by retesting of the tear film breakup time after 30 minutes. At that time, the first-measured tear film breakup time was 21.03 seconds, with an average breakup time of 21.35 seconds. The tear meniscus height in both eyes increased over 0.6 mm following the single application of progesterone."}}, "note": "“Also recorded” adds a separate entry of the source.", "data": [{"smiles": "CC(=O)[C@H]1CC[C@H]2[C@@H]3CCC4=CC(=O)CC[C@]4(C)[C@H]3CC[C@]12C", "note": "[progesterone]", "values": [{"measurement": "duration of ocular comfort per dose", "setting": "[1]", "result": "at least 12 hours"}, {"measurement": "time to ocular comfort and tear film secretion", "setting": "[1]", "result": "within a few minutes"}, {"measurement": "number of activated (c-Fos-positive) neurons in the Vc/C1 region, compared to placebo", "setting": "[2]", "result": "but not the Vc/C1 region"}, {"measurement": "number of activated (c-Fos-positive) neurons in the Vi/Vc region, compared to placebo", "setting": "[2]; 7 rats vs 6 placebo", "result": "significantly greater number of activated neurons; also recorded: significant increase in activated neurons"}, {"measurement": "adverse events", "setting": "[3]; human, in vivo", "result": "no adverse events were noted"}, {"measurement": "ocular symptoms of burning and itching", "setting": "[3]; progesterone 1% on the forehead, initially once daily, then as needed, on oral rasagiline", "result": "relieved their ocular symptoms of burning and itching"}, {"measurement": "dry eye disease symptoms", "setting": "[3]; progesterone 1% to the forehead once every week, July 2016 to August 2017", "result": "fully manage dry eye disease symptoms"}, {"measurement": "duration of increased ocular comfort with each dose", "setting": "[4]; progesterone twice a day to forehead", "result": "at least 5 hours"}, {"measurement": "increase in tear meniscus height in both eyes", "setting": "[4]; single application of progesterone 1% to forehead", "result": "over 0.6 mm"}, {"measurement": "first-measured tear film breakup time", "setting": "[4]; single dose progesterone 1% to forehead, after 30 minutes, pre-treatment 7.4 seconds", "result": 21.03, "unit": "s"}, {"measurement": "average tear film breakup time", "setting": "[4]; single dose progesterone 1% to forehead, after 30 minutes, pre-treatment 11.39 seconds", "result": 21.35, "unit": "s"}]}]}
